Results reported in ChEMBL document CHEMBL1201862, “PubChem BioAssay data set” (2004).
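Tested at 5 concentrations; 48 h exposure; 96-well plates; endpoints linearly interpolated, else capped at highest concentration. GI50 is the concentration that inhibits growth by half.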 Activity calls are given as the source filed them. No stated cut-off is given here; in the data, active = GI50 up to about 1.1 µM and inactive = higher.

What was measured:
Assay in all cases: NCI tumour cell line growth inhibition, 48 h
DMS-273 = test system: DMS-273
RXF 631 = test system: RXF 631
DLD-1 = test system: DLD-1
M19-MEL = test system: M19-MEL
SNB-78 = test system: SNB-78
XF498 = test system: XF498
KM-20L2 = test system: KM-20L2
DMS-114 = test system: DMS-114
HOP-18 = test system: HOP-18

Compound	GI50 (DMS-273)	GI50 (RXF 631)	GI50 (DLD-1)	GI50 (M19-MEL)	GI50 (SNB-78)	GI50 (XF498)	GI50 (KM-20L2)	GI50 (DMS-114)	GI50 (HOP-18)
Cc1cc(C)c(S(=O)(=O)ONC(=O)OC(C)(C)C)c(C)c1	> 100 µM (inactive)	> 100 µM (inactive)	> 100 µM (inactive)	> 100 µM (inactive)	> 100 µM (inactive)	> 100 µM (inactive)	–	–	–
COc1cccc2c1C(=N)c1c(O)c3c(c(O)c1C2=O)C[C@@](O)(C(C)=O)C[C@@H]3OC1CC(N)C(O)C(C)O1 (some centres undefined)	0.0766 µM (active)	0.728 µM (active)	2.2 µM (inactive)	0.486 µM (active)	2 µM (inactive)	0.202 µM (active)	0.000374 µM (active)	0.148 µM (active)	0.428 µM (active)
Cc1ccc(NC(=O)/C(=N\NC(N)=S)C(C#N)c2ccccc2C)cc1C (centres undefined)	> 100 µM (inactive)	> 100 µM (inactive)	> 100 µM (inactive)	> 100 µM (inactive)	> 100 µM (inactive)	> 100 µM (inactive)	> 100 µM (inactive)	> 100 µM (inactive)	> 100 µM (inactive)
Cc1nc2c(nc1C)C(=O)c1cc(O)ccc1C2=O	> 59 µM (inactive)	–	> 51.3 µM (inactive)	8.13 µM (inactive)	> 100 µM (inactive)	–	57.4 µM (inactive)	37.2 µM (inactive)	> 100 µM (inactive)
CC1CC(=O)c2c(ccc3c2C(=O)c2cccc(O)c2C3=O)C1 (centres undefined)	4.48 µM (inactive)	13.2 µM (inactive)	2.94 µM (inactive)	1.41 µM (inactive)	7.29 µM (inactive)	12.6 µM (inactive)	–	6.38 µM (inactive)	6.58 µM (inactive)
O=C(Oc1ccc2c(-c3ccccc3)c(C(=O)Nc3ccc(Cl)cc3)c(=O)oc2c1)c1ccccc1	> 100 µM (inactive)	–	> 100 µM (inactive)	> 100 µM (inactive)	–	58.1 µM (inactive)	> 100 µM (inactive)	65.3 µM (inactive)	> 100 µM (inactive)
COC(=O)C1(C(=O)OC)CC(=O)c2cc3c(cc2-c2c(cc(OC)c(OC)c2OC)C1)OCO3	124 µM (inactive)	> 211 µM (inactive)	> 211 µM (inactive)	> 211 µM (inactive)	–	–	> 211 µM (inactive)	–	0.0211 µM (active)
O=C(Nc1ccc(F)cc1)C(=O)C(C1OC(=O)c2ccccc21)[N+](=O)[O-] (centres undefined)	–	–	> 100 µM (inactive)	> 100 µM (inactive)	> 100 µM (inactive)	> 100 µM (inactive)	> 100 µM (inactive)	> 100 µM (inactive)	–
C[Si](C)(C)/C=C/CCC(C=O)(CCCl)c1ccccc1 (centres undefined)	19.4 µM (inactive)	–	29.5 µM (inactive)	27.7 µM (inactive)	23.8 µM (inactive)	18.7 µM (inactive)	28.8 µM (inactive)	19.5 µM (inactive)	27.4 µM (inactive)
COC1=CC(=O)[C@]2(C)[C@H](C1=O)C(C)[C@H]2c1ccc(OC)cc1 (some centres undefined)	> 100 µM (inactive)	–	> 100 µM (inactive)	> 100 µM (inactive)	> 100 µM (inactive)	> 100 µM (inactive)	–	–	–
Cc1c(C#N)c(=O)[nH]c(=O)n1CCN1CCN(C(=O)NCCCCCCNC(=O)N2CCN(CCn3c(C)c(C#N)c(=O)[nH]c3=O)CC2)CC1	> 100 µM (inactive)	–	> 100 µM (inactive)	> 100 µM (inactive)	> 100 µM (inactive)	> 100 µM (inactive)	> 100 µM (inactive)	> 100 µM (inactive)	> 100 µM (inactive)
O=[N+]([O-])c1ccc2nc(/C(=N/Nc3ccccc3)C(O)c3ccco3)c(O)nc2c1 (centres undefined)	> 100 µM (inactive)	> 100 µM (inactive)	> 100 µM (inactive)	73.5 µM (inactive)	–	> 100 µM (inactive)	24.5 µM (inactive)	40 µM (inactive)	–
COc1ccccc1NC(=O)C1=C(C)NC(C)=C(C(=O)Nc2ccccc2OC)C1c1ccc(C)cc1	40 µM (inactive)	–	–	42.5 µM (inactive)	56.5 µM (inactive)	24.3 µM (inactive)	> 100 µM (inactive)	51.9 µM (inactive)	76 µM (inactive)
CCCC(O)c1ccc2[nH]c3c(C)cc([N+](=O)[O-])c(C)c3c2c1 (centres undefined)	21.3 µM (inactive)	–	54.1 µM (inactive)	> 100 µM (inactive)	> 100 µM (inactive)	> 100 µM (inactive)	–	> 100 µM (inactive)	> 100 µM (inactive)
O=C1C=CC2(CCC23C=CC(=O)O3)O1 (centres undefined)	–	71 µM (inactive)	> 100 µM (inactive)	> 100 µM (inactive)	> 100 µM (inactive)	> 100 µM (inactive)	> 100 µM (inactive)	> 100 µM (inactive)	> 100 µM (inactive)
CCCCNC(=S)Nn1c(-c2ccccc2)nc2ccccc2c1=O	> 100 µM (inactive)	–	> 100 µM (inactive)	92.5 µM (inactive)	–	–	–	87.3 µM (inactive)	> 100 µM (inactive)
Cc1cccc(-c2nnc3s/c(=C\c4ccc(N(C)C)cc4)c(=O)n23)c1	> 100 µM (inactive)	–	> 100 µM (inactive)	> 100 µM (inactive)	> 100 µM (inactive)	> 100 µM (inactive)	> 100 µM (inactive)	–	> 100 µM (inactive)
N[C@H](C(=O)O)[C@@H](Cl)CC(=O)O	> 100 µM (inactive)	–	> 100 µM (inactive)	> 100 µM (inactive)	> 100 µM (inactive)	> 100 µM (inactive)	> 100 µM (inactive)	> 100 µM (inactive)	> 100 µM (inactive)
CN(C)c1nc(N(C)C)n2nc(-c3ccccc3[N+](=O)[O-])nc2n1	33.5 µM (inactive)	–	48.5 µM (inactive)	> 100 µM (inactive)	> 100 µM (inactive)	> 100 µM (inactive)	> 100 µM (inactive)	> 100 µM (inactive)	> 100 µM (inactive)
O=C1C(Cl)C(c2cccc(O)c2)N1n1cnc2ccccc2c1=O (centres undefined)	> 100 µM (inactive)	–	> 100 µM (inactive)	> 100 µM (inactive)	> 100 µM (inactive)	> 100 µM (inactive)	> 100 µM (inactive)	> 100 µM (inactive)	39.9 µM (inactive)
NC(=O)C(=O)C1CCC2=C(Sc3ccccc3N2)C1=O (centres undefined)	–	> 100 µM (inactive)	> 100 µM (inactive)	> 100 µM (inactive)	> 100 µM (inactive)	–	> 100 µM (inactive)	> 100 µM (inactive)	–
Oc1cc(CN2CCOCCOCCOCCOCC2)c(O)cc1CN1CCOCCOCCOCCOCC1	–	–	22.1 µM (inactive)	14.1 µM (inactive)	> 57.1 µM (inactive)	22 µM (inactive)	> 50.6 µM (inactive)	–	–
N#Cc1cccc(C2C(=O)c3ccc(C(=O)c4ccc5c(c4)C(=O)N(c4ccc(Oc6ccc(N7C(=O)c8ccc(C(=O)c9ccc%10c(c9)C(=O)N(c9cccc(C#N)c9)C%10=O)cc8C7=O)cc6)cc4)C5=O)cc3C2=O)c1 (centres undefined)	> 100 µM (inactive)	> 100 µM (inactive)	> 100 µM (inactive)	> 100 µM (inactive)	–	> 100 µM (inactive)	> 100 µM (inactive)	> 100 µM (inactive)	–
CCC(=O)N(O)C(C)(C)C	–	–	> 100 µM (inactive)	> 100 µM (inactive)	> 100 µM (inactive)	–	> 100 µM (inactive)	> 100 µM (inactive)	–
Nc1nc(O)c2[nH]nnc2n1 [8-AZAGUANINE]	0.634 µM (active)	–	20 µM (inactive)	–	1.02 µM (active)	–	9.2 µM (inactive)	6.5 µM (inactive)	0.339 µM (active)
Clc1ccc2c(Cl)ncnc2c1	> 100 µM (inactive)	–	> 100 µM (inactive)	> 100 µM (inactive)	–	> 100 µM (inactive)	> 100 µM (inactive)	–	–
COC(=O)C1=C(C(=O)OC)C(C(=O)OC)C(C(=O)OC)=C1C(=O)OC	> 100 µM (inactive)	> 100 µM (inactive)	> 100 µM (inactive)	–	–	–	> 100 µM (inactive)	> 100 µM (inactive)	> 100 µM (inactive)
